Experimental data taken from PubChem BioAssay (NCI).
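Each compound was tested at five concentrations against cells in 96-well plates for 48 hours. Here, GI50 denotes the concentration required for 50% inhibition of growth. Definition used: TGI = concentration required for complete inhibition of growth.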

How the values were obtained:
Experiment in all cases: NCI anticancer screen, dose series, 48 h
[1] = system: 786-0 renal
[2] = system: A498 renal
[3] = system: A549 NSCLC
[4] = system: ACHN renal
[5] = system: BT-549 breast
[6] = system: CAKI-1 renal
[7] = system: CCRF-CEM leukemia
[8] = system: COLO 205 colon
[9] = system: DU-145 prostate
[10] = system: EKVX NSCLC
[11] = system: HCC-2998 colon
[12] = system: HCT-116 colon
[13] = system: HCT-15 colon
[14] = system: HL-60(TB) leukemia
[15] = system: HOP-62 NSCLC
[16] = system: HOP-92 NSCLC
[17] = system: HS 578T breast
[18] = system: HT29 colon
[19] = system: IGROV1 ovarian
[20] = system: K-562 leukemia
[21] = system: KM12 colon
[22] = system: LOX IMVI melanoma
[23] = system: M14 melanoma
[24] = system: MALME-3M melanoma
[25] = system: MCF7 breast
[26] = system: MDA-MB-231 breast
[27] = system: MDA-MB-435
[28] = system: MOLT-4 leukemia
[29] = system: NCI-H226 lung
[30] = system: NCI-H23 lung
[31] = system: NCI-H460 lung
[32] = system: NCI-H522 lung
[33] = system: NCI/ADR-RES ovarian
[34] = system: OVCAR-3 ovarian
[35] = system: OVCAR-4 ovarian
[36] = system: OVCAR-5 ovarian
[37] = system: OVCAR-8 ovarian
[38] = system: PC-3 prostate
[39] = system: RPMI-8226 leukemia
[40] = system: RXF 393 renal
[41] = system: SF-268 CNS
[42] = system: SF-295 CNS
[43] = system: SF-539 CNS
[44] = system: SK-MEL-2 melanoma
[45] = system: SK-MEL-28 melanoma
[46] = system: SK-MEL-5 melanoma
[47] = system: SK-OV-3 ovarian
[48] = system: SN12C renal
[49] = system: SNB-19 CNS
[50] = system: SNB-75 CNS
[51] = system: SW-620 colon
[52] = system: T-47D breast
[53] = system: TK-10 renal
[54] = system: U251 CNS
[55] = system: UACC-257 melanoma
[56] = system: UACC-62 melanoma
[57] = system: UO-31 renal

Structure (SMILES): O=c1c2cc(I)ccc2nc(-c2cccs2)n1-c1ccc(S(=O)(=O)Nc2nccs2)cc1
- GI50 [1]: 54.1 µM
- TGI [1]: > 100 µM
- GI50 [2]: 22.7 µM
- TGI [2]: 71.5 µM
- GI50 [3]: 49.1 µM
- TGI [3]: > 100 µM
- GI50 [4]: 41.3 µM
- TGI [4]: > 100 µM
- GI50 [5]: 22.3 µM
- TGI [5]: 60.6 µM
- GI50 [6]: 21.1 µM
- TGI [6]: 52 µM
- GI50 [7]: 38.4 µM
- TGI [7]: > 100 µM
- GI50 [8]: 33.5 µM
- TGI [8]: > 100 µM
- GI50 [9]: 27.4 µM
- TGI [9]: > 100 µM
- GI50 [10]: 20.8 µM
- TGI [10]: 55.5 µM
- GI50 [11]: 29.5 µM
- TGI [11]: 62.5 µM
- GI50 [12]: 37.1 µM
- TGI [12]: > 100 µM
- GI50 [13]: 42.6 µM
- TGI [13]: > 100 µM
- GI50 [14]: 50.4 µM
- TGI [14]: > 100 µM
- GI50 [15]: 42.8 µM
- TGI [15]: > 100 µM
- GI50 [16]: 28.8 µM
- TGI [16]: > 100 µM
- GI50 [17]: 26.2 µM
- TGI [17]: 84.1 µM
- GI50 [18]: > 100 µM
- TGI [18]: > 100 µM
- GI50 [19]: 33.2 µM
- TGI [19]: > 100 µM
- GI50 [20]: 36.6 µM
- TGI [20]: > 100 µM
- GI50 [21]: 39.2 µM
- TGI [21]: > 100 µM
- GI50 [22]: 28.9 µM
- TGI [22]: 82.8 µM
- GI50 [23]: > 100 µM
- TGI [23]: > 100 µM
- GI50 [24]: 36.7 µM
- TGI [24]: 99.9 µM
- GI50 [25]: 41.7 µM
- TGI [25]: > 100 µM
- GI50 [26]: 25.1 µM
- TGI [26]: 73.5 µM
- GI50 [27]: 36.8 µM
- TGI [27]: > 100 µM
- GI50 [28]: 61.4 µM
- TGI [28]: > 100 µM
- GI50 [29]: 24.9 µM
- TGI [29]: 74.8 µM
- GI50 [30]: 22.5 µM
- TGI [30]: > 100 µM
- GI50 [31]: 34.2 µM
- TGI [31]: > 100 µM
- GI50 [32]: 25.9 µM
- TGI [32]: 76 µM
- GI50 [33]: 88.1 µM
- TGI [33]: > 100 µM
- GI50 [34]: 25.3 µM
- TGI [34]: 83.8 µM
- GI50 [35]: 86.9 µM
- TGI [35]: > 100 µM
- GI50 [36]: 35.3 µM
- TGI [36]: > 100 µM
- GI50 [37]: 32 µM
- TGI [37]: 98 µM
- GI50 [38]: 38.4 µM
- TGI [38]: > 100 µM
- GI50 [39]: 38.4 µM
- TGI [39]: > 100 µM
- GI50 [40]: 40 µM
- TGI [40]: > 100 µM
- GI50 [41]: 29.6 µM
- TGI [41]: > 100 µM
- GI50 [42]: 27.6 µM
- TGI [42]: > 100 µM
- GI50 [43]: 22.6 µM
- TGI [43]: 44.5 µM
- GI50 [44]: 33.2 µM
- TGI [44]: > 100 µM
- GI50 [45]: 78.5 µM
- TGI [45]: > 100 µM
- GI50 [46]: 19.7 µM
- TGI [46]: 44.2 µM
- GI50 [47]: 66.6 µM
- TGI [47]: > 100 µM
- GI50 [48]: 37.2 µM
- TGI [48]: > 100 µM
- GI50 [49]: 41.9 µM
- TGI [49]: > 100 µM
- GI50 [50]: > 100 µM
- TGI [50]: > 100 µM
- GI50 [51]: 31.3 µM
- TGI [51]: > 100 µM
- GI50 [52]: 34.4 µM
- TGI [52]: > 100 µM
- GI50 [53]: 35.2 µM
- TGI [53]: > 100 µM
- GI50 [54]: 27.2 µM
- TGI [54]: 81.7 µM
- GI50 [55]: 41.8 µM
- TGI [55]: > 100 µM
- GI50 [56]: 22.8 µM
- TGI [56]: 52.1 µM
- GI50 [57]: 22.6 µM
- TGI [57]: 51.6 µM
